According to the supplement of paper PMC10883282:
Structures can show the parent of a compound that is named as a salt. ± gives the standard deviation of the averaged measurements.

Test system: SW684
Assay: relative viability vs DMSO control (72 h) (fraction); higher = more viable cells
In short: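 A 5 µM positive control and 0.1% DMSO vehicle ran alongside sarcoma cell lines seeded in 384-well plates to reach 80–90% confluence. Serially diluted compound, 2.5 µl from source plates of 10 mM to 0.0002 mM, was added after 24 h, and the plates were held 72 h at 37 °C, 5% CO2. Relative viability was worked out from ATPLite readings as percent growth averaged over up to triplicate wells. The values were rescaled so that 1 is full and 0 is none.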

| Structure (SMILES) | relative viability (0.00017 µM) | relative viability (0.00051 µM) | relative viability (0.00152 µM) | relative viability (0.00457 µM) | relative viability (0.01372 µM) | relative viability (0.04115 µM) | relative viability (0.1235 µM) | relative viability (0.3704 µM) | relative viability (1.111 µM) | relative viability (3.333 µM) | relative viability (10 µM) | relative viability (2 pM) | relative viability (5 pM) | relative viability (15 pM) | relative viability (50 pM) | relative viability (0.00014 µM) | relative viability (0.00041 µM) | relative viability (0.0012 µM) | relative viability (0.0037 µM) | relative viability (0.011 µM) | relative viability (200 fM) | relative viability (600 fM) |
| --- | --- | --- | --- | --- | --- | --- | --- | --- | --- | --- | --- | --- | --- | --- | --- | --- | --- | --- | --- | --- | --- | --- |
| CCCS(=O)(=O)Nc1ccc(F)c(C(=O)c2c[nH]c3ncc(-c4ccc(Cl)cc4)cc23)c1F [Vemurafenib] | 1.18 ± 0.038 | 1.26 ± 0.02 | 1.18 ± 0.073 | 1.21 ± 0.054 | 1.205 ± 0.0029 | 1.18 ± 0.032 | 1.207 ± 0.0074 | 1.21 ± 0.034 | 1.21 ± 0.035 | 1.04 ± 0.033 | 0.804 ± 0.17 |  |  |  |  |  |  |  |  |  |  |  |
| COCc1c(-c2cc3cc(C)cc(OC)c3s2)c2c(N)ncnn2c1CN1CCNC(=O)C1 [Rogaratinib] | 1.11 ± 0.051 | 1.16 ± 0.028 | 1.16 ± 0.088 | 1.16 ± 0.043 | 1.15 ± 0.03 | 1.15 ± 0.018 | 1.12 ± 0.082 | 1.14 ± 0.061 | 1.09 ± 0.018 | 1.04 ± 0.019 | 0.898 ± 0.038 |  |  |  |  |  |  |  |  |  |  |  |
| C=CC(=O)N1CCC([C@@H]2CCNc3c(C(N)=O)c(-c4ccc(Oc5ccccc5)cc4)nn32)CC1 [Zanubrutinib] | 0.998 ± 0.075 | 1.03 ± 0.08 | 1 ± 0.07 | 0.998 ± 0.054 | 1 ± 0.069 | 1.01 ± 0.028 | 1.01 ± 0.047 | 0.978 ± 0.074 | 0.985 ± 0.048 | 0.925 ± 0.038 | 0.89 ± 0.042 |  |  |  |  |  |  |  |  |  |  |  |
| COc1cccc2c1C(=O)c1c(O)c3c(c(O)c1C2=O)C[C@@](O)(C(=O)CO)C[C@@H]3O[C@H]1C[C@H](N)[C@H](O)[C@H](C)O1 [Doxorubicin Hydrochloride] | 1.21 ± 0.03 | 1.21 ± 0.023 | 1.2 ± 0.058 | 1.157 ± 0.0079 | 1.06 ± 0.044 | 0.96 ± 0.031 | 0.821 ± 0.062 | 0.731 ± 0.14 | 0.813 ± 0.013 | 0.803 ± 0.033 | 0.693 ± 0.024 |  |  |  |  |  |  |  |  |  |  |  |
| CC(C)NC(=O)C1CCC(n2c(NC(=O)c3ccc(F)cc3)nc3ccc(CN4CCC(C(C)(C)O)CC4)cc32)CC1 (stereo not drawn) [Belizatinib] | 1.169 ± 0.011 | 1.17 ± 0.071 | 1.19 ± 0.024 | 1.21 ± 0.098 | 1.21 ± 0.11 | 1.17 ± 0.056 | 1.16 ± 0.012 | 1.18 ± 0.03 | 1.09 ± 0.048 | 0.798 ± 0.034 | 0.381 ± 0.056 |  |  |  |  |  |  |  |  |  |  |  |
| COc1cc2/c(=N/c3ccc(Br)cc3F)nc[nH]c2cc1OCC1CCN(C)CC1 [Vandetanib] | 1.13 ± 0.018 | 1.09 ± 0.075 | 1.14 ± 0.035 | 1.12 ± 0.074 | 1.16 ± 0.033 | 1.16 ± 0.02 | 1.16 ± 0.069 | 1.168 ± 0.0075 | 1.15 ± 0.038 | 1.03 ± 0.054 | 0.132 ± 0.016 |  |  |  |  |  |  |  |  |  |  |  |
| C[C@@H]1CCN(C(=O)CC#N)C[C@@H]1N(C)c1ncnc2[nH]ccc12 [Tofacitinib] | 1.2 ± 0.035 | 1.24 ± 0.023 | 1.2 ± 0.004 | 1.23 ± 0.028 | 1.215 ± 0.012 | 1.192 ± 0.0029 | 1.19 ± 0.018 | 1.22 ± 0.031 | 1.11 ± 0.021 | 1.1 ± 0.015 | 0.943 ± 0.029 |  |  |  |  |  |  |  |  |  |  |  |
| Cn1cnc2c(F)c(Nc3ccc(Br)cc3F)c(C(=O)NOCCO)cc21 [Binimetinib] | 1.12 ± 0.038 | 1.17 ± 0.046 | 1.11 ± 0.03 | 1.11 ± 0.028 | 1.14 ± 0.037 | 1.12 ± 0.069 | 1.06 ± 0.058 | 1.01 ± 0.071 | 0.953 ± 0.035 | 0.847 ± 0.035 | 0.642 ± 0.018 |  |  |  |  |  |  |  |  |  |  |  |
| Cc1nc(-c2cn3c(n2)-c2ccc(-c4cnn(C(C)(C)C(N)=O)c4)cc2OCC3)n(C(C)C)n1 [Taselisib] | 1.09 ± 0.027 | 1.1 ± 0.036 | 1.06 ± 0.019 | 1.01 ± 0.027 | 0.923 ± 0.036 | 0.75 ± 0.021 | 0.634 ± 0.009 | 0.549 ± 0.017 | 0.477 ± 0.0088 | 0.445 ± 0.026 | 0.451 ± 0.015 |  |  |  |  |  |  |  |  |  |  |  |
| Nc1cc(C(F)(F)F)c(-c2cc(N3CCOCC3)nc(N3CCOCC3)n2)cn1 [Buparlisib] | 1.12 ± 0.044 | 1.14 ± 0.075 | 1.11 ± 0.047 | 1.11 ± 0.04 | 1.08 ± 0.049 | 1.09 ± 0.077 | 1.03 ± 0.016 | 0.9 ± 0.055 | 0.599 ± 0.041 | 0.38 ± 0.022 | 0.282 ± 0.0065 |  |  |  |  |  |  |  |  |  |  |  |
| Cc1cnc(Nc2ccc(OCCN3CCCC3)cc2)nc1Nc1cccc(S(=O)(=O)NC(C)(C)C)c1 [Fedratinib] | 1.12 ± 0.04 | 1.16 ± 0.04 | 1.17 ± 0.081 | 1.16 ± 0.021 | 1.15 ± 0.047 | 1.13 ± 0.038 | 1.1 ± 0.029 | 1 ± 0.023 | 0.666 ± 0.04 | 0.399 ± 0.018 | 0.0027 |  |  |  |  |  |  |  |  |  |  |  |
| COc1cc2c(Oc3ccc4[nH]c(C)cc4c3F)ncnc2cc1OCCCN1CCCC1 [Cediranib] | 1.18 ± 0.024 | 1.17 ± 0.076 | 1.17 ± 0.03 | 1.17 ± 0.059 | 1.16 ± 0.033 | 1.169 ± 0.011 | 1.15 ± 0.029 | 1.19 ± 0.033 | 1.2 ± 0.035 | 1.19 ± 0.039 | 0.987 ± 0.058 |  |  |  |  |  |  |  |  |  |  |  |
| CC(=O)Nc1cccc(-n2c(=O)n(C3CC3)c(=O)c3c(Nc4ccc(I)cc4F)n(C)c(=O)c(C)c32)c1 [Trametinib] | 1.16 ± 0.02 | 1.17 ± 0.045 | 1.19 ± 0.04 | 1.14 ± 0.035 | 1.05 ± 0.0092 | 0.859 ± 0.018 | 0.615 ± 0.0083 | 0.552 ± 0.011 | 0.511 ± 0.017 | 0.517 ± 0.0077 | 0.4614 ± 0.002 |  |  |  |  |  |  |  |  |  |  |  |
| CC(C)N1CCN(Cc2cnc(-c3cc(-c4cccc5[nH]ccc45)cc4[nH]ncc34)o2)CC1 [Nemiralisib] | 1 ± 0.084 | 0.911 ± 0.069 | 0.851 ± 0.033 | 0.804 ± 0.014 | 0.721 ± 0.019 | 0.68 ± 0.051 | 0.695 ± 0.011 | 0.618 ± 0.03 | 0.541 ± 0.035 | 0.548 ± 0.027 | 0.444 ± 0.043 |  |  |  |  |  |  |  |  |  |  |  |
| Cc1cc(Nc2ncnc3ccc(NC4=NC(C)(C)CO4)cc23)ccc1Oc1ccn2ncnc2c1 [Tucatinib] | 1.17 ± 0.019 | 1.2 ± 0.024 | 1.2 ± 0.024 | 1.18 ± 0.03 | 1.21 ± 0.068 | 1.21 ± 0.068 | 1.22 ± 0.09 | 1.19 ± 0.098 | 1.14 ± 0.016 | 1.13 ± 0.074 | 1.08 ± 0.0088 |  |  |  |  |  |  |  |  |  |  |  |
| COc1cc2c(cc1O)CCN[C@]21CS[C@@H]2c3c(OC(C)=O)c(C)c4c(c3[C@H](COC1=O)N1[C@@H]2[C@H]2c3c(cc(C)c(OC)c3O)C[C@@H]([C@@H]1O)N2C)OCO4 [Trabectedin] |  |  |  |  |  |  |  |  |  |  |  | 1.22 ± 0.037 | 1.2 ± 0.027 | 1.22 ± 0.047 | 1.18 ± 0.06 | 1.2 ± 0.045 | 1.1605 ± 0.00091 | 0.64 ± 0.054 | 0.811 ± 0.043 | 0.84 ± 0.038 | 1.17 ± 0.051 | 1.2 ± 0.071 |
| C[C@@H]1COCCN1c1cc(-c2ccnn2C)c2ccnc(-c3ccn[nH]3)c2n1 | 1.14 ± 0.056 | 1.19 ± 0.041 | 1.18 ± 0.085 | 1.17 ± 0.069 | 1.14 ± 0.082 | 1.06 ± 0.056 | 1.04 ± 0.048 | 0.919 ± 0.036 | 0.719 ± 0.039 | 0.461 ± 0.023 | 0.367 ± 0.01 |  |  |  |  |  |  |  |  |  |  |  |
| Cc1cc(C)c(/C=C2\C(=O)Nc3ccccc32)[nH]1 [Semaxanib] | 0.981 ± 0.022 | 0.962 ± 0.03 | 0.994 ± 0.026 | 0.935 ± 0.018 | 0.917 ± 0.02 | 0.8931 ± 0.0076 | 0.901 ± 0.046 | 0.923 ± 0.029 | 0.932 ± 0.06 | 0.902 ± 0.072 | 0.812 ± 0.017 |  |  |  |  |  |  |  |  |  |  |  |
